Data on one compound can be found in patent US20130102683A1, “MELT-GRANULATED FINGOLIMOD” (RATIOPHARM GMBH, priority 2010, published 2013).

This series is described as follows: Water adsorption of fingolimod salts under set atmospheric humidity (hygrostat). In kind it is physicochemical. The settings on record: atmospheric humidity set at 75% by means of a hygrostat; after 2 weeks. From the text: In addition, experiments on various salts of fingolimod have shown that depending on the ambient conditions, the possibility of water adsorption exists. […] Water adsorption on this scale is detrimental to the storage stability of dosage forms containing fingolimod, especially in the case of tablets, granules or powders.

Structures can show the parent of a compound that is named as a salt.

Regarding `CCCCCCCCc1ccc(CCC(N)(CO)CO)cc1` [hydrochloride of fingolimod], the “increase of water content” value came out at 7 fold.
